ChEMBL document CHEMBL1145302, “Synthesis and antibacterial activity of C6-carbazate ketolides” (2006)
≈ marks a conversion by molar mass, not a printed value.

Legend:
Assay type in all cases: functional
[1] = test system: Streptococcus pneumoniae; experiment: Antibacterial activity against erythromycin-susceptible Streptococcus pneumoniae OC9132
[2] = test system: Staphylococcus aureus; experiment: Antibacterial activity against erythromycin-susceptible Staphylococcus aureus Smith OC4172 in presence of 50% mouse serum
[3] = test system: Staphylococcus aureus; experiment: Antibacterial activity against erythromycin-susceptible Staphylococcus aureus Smith OC4172
[4] = test system: Streptococcus pneumoniae; experiment: Antibacterial activity against erythromycin-resistant Streptococcus pneumoniae OC4421 containing mef(A)
[5] = test system: Streptococcus pneumoniae; experiment: Antibacterial activity against erythromycin-resistant Streptococcus pneumoniae OC4051 containing erm(B)
[6] = test system: Haemophilus influenzae; experiment: Antibacterial activity against telithromycin-susceptible Haemophilus influenzae ATCC 49766
[7] = test system: Staphylococcus haemolyticus; experiment: Antibacterial activity against erythromycin resistant Staphylococcus haemolyticus OC3882 containing erm(C)
[8] = test system: Staphylococcus aureus; experiment: Antibacterial activity against Staphylococcus aureus Smith infected in orally dosed Swiss Webster mouse septicemia model; conditions: po
[9] = test system: Staphylococcus aureus; experiment: Antibacterial activity against Staphylococcus aureus Smith infected in sc dosed Swiss Webster mouse septicemia model

| Structure (SMILES) | MIC [1] [µg/mL] | MIC [2] [µg/mL] | MIC [3] [µg/mL] | MIC [4] [µg/mL] | MIC [5] [µg/mL] | MIC [6] [µg/mL] | MIC [7] [µg/mL] | ED50 [8] [mg/kg] | ED50 [9] [mg/kg] |
| --- | --- | --- | --- | --- | --- | --- | --- | --- | --- |
| CC[C@H]1OC(=O)[C@H](C)C(=O)[C@H](C)[C@@H](O[C@@H]2O[C@H](C)C[C@H](N(C)C)[C@H]2O)[C@](C)(OC(=O)NN(C)CCc2ccc(-c3cnccn3)cc2)C[C@@H](C)C(=O)[C@H](C)[C@H]2NC(=O)O[C@@]21C | 0.03 (≈ 0.0352 µM) | 0.5 | 0.25 (≈ 0.293 µM) | 0.25 (≈ 0.293 µM) | 0.06 (≈ 0.0703 µM) | 2 (≈ 2.34 µM) | 0.5 (≈ 0.586 µM) |  |  |
| CC[C@H]1OC(=O)[C@H](C)C(=O)[C@H](C)[C@@H](O[C@@H]2O[C@H](C)C[C@H](N(C)C)[C@H]2O)[C@](C)(OC(=O)NN(C)CCCc2ccc(-c3ncccn3)cc2)C[C@@H](C)C(=O)[C@H](C)[C@H]2NC(=O)O[C@@]21C | 0.06 (≈ 0.0692 µM) | 1 | 0.5 (≈ 0.577 µM) | 0.5 (≈ 0.577 µM) | 0.5 (≈ 0.577 µM) | 8 (≈ 9.23 µM) | 1 (≈ 1.15 µM) |  |  |
| CC[C@H]1OC(=O)[C@H](C)C(=O)[C@H](C)[C@@H](O[C@@H]2O[C@H](C)C[C@H](N(C)C)[C@H]2O)[C@](C)(OC(=O)NNCCc2cnc3ccccc3c2)C[C@@H](C)C(=O)[C@H](C)[C@H]2NC(=O)O[C@@]21C | 0.03 (≈ 0.0369 µM) | 1 | 0.5 (≈ 0.616 µM) | 0.25 (≈ 0.308 µM) | 0.06 (≈ 0.0739 µM) | 0.5 (≈ 0.616 µM) | 0.5 (≈ 0.616 µM) |  |  |
| CC[C@H]1OC(=O)[C@H](C)C(=O)[C@H](C)[C@@H](O[C@@H]2O[C@H](C)C[C@H](N(C)C)[C@H]2O)[C@](C)(OC(=O)NN(C)CCc2cnc3ccccc3c2)C[C@@H](C)C(=O)[C@H](C)[C@H]2NC(=O)O[C@@]21C | 0.06 (≈ 0.0726 µM) | 2 | 1 (≈ 1.21 µM) | 0.5 (≈ 0.605 µM) | 0.12 (≈ 0.145 µM) | 2 (≈ 2.42 µM) | 8 (≈ 9.69 µM) |  |  |
| CC[C@H]1OC(=O)[C@H](C)C(=O)[C@H](C)[C@@H](O[C@@H]2O[C@H](C)C[C@H](N(C)C)[C@H]2O)[C@](C)(OC(=O)NNCCc2cccc(-c3ncccn3)c2)C[C@@H](C)C(=O)[C@H](C)[C@H]2NC(=O)O[C@@]21C | 0.03 (≈ 0.0358 µM) | 1 | 0.25 (≈ 0.298 µM) | 0.25 (≈ 0.298 µM) | 0.06 (≈ 0.0715 µM) | 2 (≈ 2.38 µM) | 0.25 (≈ 0.298 µM) | > 20 | 4.3 |
| CC[C@H]1OC(=O)[C@H](C)C(=O)[C@H](C)[C@@H](O[C@@H]2O[C@H](C)C[C@H](N(C)C)[C@H]2O)[C@](C)(OC(=O)NNCCc2ccc(-c3cnccn3)cc2)C[C@@H](C)C(=O)[C@H](C)[C@H]2NC(=O)O[C@@]21C | 0.03 (≈ 0.0358 µM) | 0.5 | 0.25 (≈ 0.298 µM) | 0.25 (≈ 0.298 µM) | 0.06 (≈ 0.0715 µM) | 2 (≈ 2.38 µM) | 0.25 (≈ 0.298 µM) |  |  |
| CC[C@H]1OC(=O)[C@H](C)C(=O)[C@H](C)[C@@H](O[C@@H]2O[C@H](C)C[C@H](N(C)C)[C@H]2O)[C@](C)(OC(=O)N(C)NCCc2ccc(-c3cnccn3)cc2)C[C@@H](C)C(=O)[C@H](C)[C@H]2NC(=O)O[C@@]21C | 0.06 (≈ 0.0703 µM) | 2 | 0.5 (≈ 0.586 µM) | 0.5 (≈ 0.586 µM) | 0.12 (≈ 0.141 µM) | 8 (≈ 9.38 µM) | 2 (≈ 2.34 µM) |  |  |
| CC[C@H]1OC(=O)[C@H](C)C(=O)[C@H](C)[C@@H](O[C@@H]2O[C@H](C)C[C@H](N(C)C)[C@H]2O)[C@](C)(OC(=O)NN(C)CCc2ccc(-c3ncccn3)cc2F)C[C@@H](C)C(=O)[C@H](C)[C@H]2NC(=O)O[C@@]21C | 0.06 (≈ 0.0689 µM) | 1 | 0.5 (≈ 0.574 µM) | 0.25 (≈ 0.287 µM) | 0.06 (≈ 0.0689 µM) | 4 (≈ 4.59 µM) | 0.5 (≈ 0.574 µM) | > 20 | 2.3 |
| CC[C@H]1OC(=O)[C@H](C)C(=O)[C@H](C)[C@@H](O[C@@H]2O[C@H](C)C[C@H](N(C)C)[C@H]2O)[C@](C)(OC(=O)NN(CC)CCc2ccc(-c3ncccn3)cc2)C[C@@H](C)C(=O)[C@H](C)[C@H]2NC(=O)O[C@@]21C | 0.12 (≈ 0.138 µM) | 2 | 0.25 (≈ 0.288 µM) | 0.25 (≈ 0.288 µM) | 0.12 (≈ 0.138 µM) | 8 (≈ 9.23 µM) | 0.5 (≈ 0.577 µM) |  |  |
